The text below walks through data of ChEMBL document CHEMBL1201862, “PubChem BioAssay data set” (2004).

Molecules are shown by their SMILES.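 Tested at 5 concentrations; 48 h exposure; 96-well plates; endpoints linearly interpolated, else capped at highest concentration. Here, GI50 denotes the concentration required for 50% inhibition of growth.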 The source made the active and inactive calls. No stated cut-off is given here; in the data, active = GI50 up to about 1.1 µM and inactive = higher. Bounds are passed on as bounds.

Some test systems named below: ACHN; BT-549; HOP-92; K562; KM-20L2; KM12; M14; MDA-MB-231; MDA-MB-435; MOLT-4; NCI-H460; NCI-H522; OVCAR-4; OVCAR-8; PC-3; RPMI-8226; SF-295; SF-539; SNB-19; U-251.
What all share (assay): NCI tumour cell line growth inhibition, 48 h

As to `CC(=O)OC1C(O)C(C)OC(OC2C(OC(=O)C3CCC4C(C3)OC3(CC(OC(=O)/C=C/c5ccccc5)C(C)CO3)C43CO3)OC(C)C(O)C2OC(C)=O)C1O` (centres undefined), the GI50 in the experiment with ACHN is 0.0925 µM (active); in the experiment with BT-549, 0.00358 µM (active); in the experiment with HOP-92 it was 0.00581 µM (active); in the experiment with K562, 0.00622 µM (active); in the experiment with KM-20L2, 0.041 µM (active); in the experiment on KM12 it was 0.00912 µM (active). Besides, the GI50 was 0.00433 µM (active) with M14; 0.0203 µM (active) with MDA-MB-231; 0.000668 µM (active) in the experiment with MDA-MB-435; 0.00468 µM (active) in the experiment with MOLT-4; 0.0131 µM (active) in the experiment on NCI-H460; 0.00284 µM (active) in the experiment on NCI-H522. Further, the GI50 was 0.00752 µM (active) in the experiment on OVCAR-4; 0.0352 µM (active) in the experiment on OVCAR-8; 0.00513 µM (active) in the experiment on PC-3; 0.00227 µM (active) in the experiment on RPMI-8226; 0.0262 µM (active) with SF-295; 0.00736 µM (active) with SF-539. Besides, the results for the GI50 in the experiment with SNB-19 and in the experiment on U-251 were 0.00617 µM (active) and 0.00679 µM (active), respectively.

As to `COc1cccc2c1C(=O)OC2c1cccc2ccccc12` (centres undefined), the GI50 with ACHN is > 100 µM (inactive); in the experiment with BT-549, > 100 µM (inactive); with HOP-92, 30.9 µM (inactive); with K562, > 100 µM (inactive); in the experiment on KM-20L2 it was > 100 µM (inactive); in the experiment on KM12, > 100 µM (inactive). Moreover, the GI50 with M14 was > 100 µM (inactive); in the experiment with MDA-MB-231 it was 36.4 µM (inactive); in the experiment on MDA-MB-435 it was > 100 µM (inactive); with MOLT-4, > 100 µM (inactive); in the experiment with NCI-H460 it was 98.9 µM (inactive); in the experiment on NCI-H522 it was > 100 µM (inactive). Also, the GI50 was 37.8 µM (inactive) in the experiment with OVCAR-4; 56.4 µM (inactive) in the experiment on OVCAR-8; > 100 µM (inactive) in the experiment with PC-3; > 100 µM (inactive) in the experiment on RPMI-8226; 33.6 µM (inactive) in the experiment with SF-295; 63.7 µM (inactive) in the experiment with SF-539. The GI50 in the experiment on SNB-19 was 61.2 µM (inactive); with U-251 it was 67.5 µM (inactive).

Turning to `Cc1cc(N(CCOS(C)(=O)=O)CCOS(C)(=O)=O)ccc1/C=N/c1ccc(-c2nc(Cc3ccccc3)sc2C)cc1`, the GI50 was 0.404 µM (active) with ACHN; 9.12 µM (inactive) with BT-549; 8.71 µM (inactive) in the experiment on HOP-92; 5.61 µM (inactive) with K562; 7.19 µM (inactive) with KM-20L2; 14.2 µM (inactive) in the experiment with KM12. The GI50 in the experiment on M14 is 4.86 µM (inactive); with MDA-MB-231, 15.3 µM (inactive); in the experiment with MDA-MB-435, 11 µM (inactive); in the experiment with MOLT-4 it was 1.23 µM (inactive); in the experiment on NCI-H460, 0.0281 µM (active); in the experiment with NCI-H522 it was 0.233 µM (active). Besides, the GI50 with OVCAR-4 was 15.5 µM (inactive); in the experiment with OVCAR-8, 7.53 µM (inactive); in the experiment on PC-3, 10.3 µM (inactive); with RPMI-8226, 3.82 µM (inactive); with SF-295 it was 1.57 µM (inactive); in the experiment with SF-539, 1.8 µM (inactive). The GI50 in the experiment with SNB-19 is 8.3 µM (inactive); in the experiment with U-251, 6.64 µM (inactive).

As for `N#CC(C(=O)/C(=N/Nc1nc(S)nn1N)C(C#N)c1ccccc1)c1ccccc1` (centres undefined), the GI50 with ACHN, with BT-549, in the experiment on HOP-92, in the experiment with K562, with KM-20L2 and in the experiment with KM12 was > 100 µM (inactive) each time. Further, the GI50 with M14, in the experiment on MDA-MB-231, with MDA-MB-435, in the experiment with NCI-H460, with NCI-H522 and in the experiment on OVCAR-4 was > 100 µM (inactive) throughout. Also, the GI50 in the experiment with OVCAR-8, in the experiment with PC-3, with RPMI-8226, in the experiment on SF-295, in the experiment on SF-539 and in the experiment on SNB-19 was > 100 µM (inactive) in each case. Further, the GI50 in the experiment on U-251 was > 100 µM (inactive).
